{"source": "PubChem BioAssay AID2060896", "about": "(Molecular Pharmacology Branch, DTP, NCI, 2025);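 further: spheroids exposed to compounds for 7 days before readout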;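 on viability, T/C: 100% = DMSO vehicle control viability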", "test_system": "941728-121-R-J1-PDC complex spheroid viability", "assay": "Anticancer human tumor 941728-121-R-J1-PDC patient-derived lung adenocarcinoma cell line growth inhibition [RAS]", "details": "for IC50: curve of first compound; for viability, T/C: stronger effect = lower value", "how_it_was_run": "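Tumour cells grown as complex spheroids with HUVEC endothelial cells and mesenchymal stem cells, treated with RAS pathway inhibitor combinations. Each agent spans half-log steps from near clinical Cmax, or 10 microM where Cmax is unknown.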", "key": {"[1]": {"details": "second compound 0.000949 µM, first compound 0.0316 µM"}, "[2]": {"details": "second compound 0.000949 µM, first compound 0.1 µM"}, "[3]": {"details": "second compound 0.000949 µM, first compound 0.316 µM"}, "[4]": {"details": "second compound 0.000949 µM, first compound 1 µM"}, "[5]": {"details": "second compound 0.000949 µM, first compound 3.16 µM"}, "[6]": {"details": "second compound 0.000949 µM, first compound 10 µM"}, "[7]": {"details": "second compound 0.003 µM, first compound 0.0316 µM"}, "[8]": {"details": "second compound 0.003 µM, first compound 0.1 µM"}, "[9]": {"details": "second compound 0.003 µM, first compound 0.316 µM"}, "[10]": {"details": "second compound 0.003 µM, first compound 1 µM"}, "[11]": {"details": "second compound 0.003 µM, first compound 3.16 µM"}, "[12]": {"details": "second compound 0.003 µM, first compound 10 µM"}, "[13]": {"details": "second compound 0.00949 µM, first compound 0.0316 µM"}, "[14]": {"details": "second compound 0.00949 µM, first compound 0.1 µM"}, "[15]": {"details": "second compound 0.00949 µM, first compound 0.316 µM"}, "[16]": {"details": "second compound 0.00949 µM, first compound 1 µM"}, "[17]": {"details": "second compound 0.00949 µM, first compound 3.16 µM"}, "[18]": {"details": "second compound 0.00949 µM, first compound 10 µM"}, "[19]": {"details": "second compound 0.03 µM, first compound 0.0316 µM"}, "[20]": {"details": "second compound 0.03 µM, first compound 0.1 µM"}, "[21]": {"details": "second compound 0.03 µM, first compound 0.316 µM"}, "[22]": {"details": "second compound 0.03 µM, first compound 1 µM"}, "[23]": {"details": "second compound 0.03 µM, first compound 3.16 µM"}, "[24]": {"details": "second compound 0.03 µM, first compound 10 µM"}, "[25]": {"details": "second compound 0.0949 µM, first compound 0.0316 µM"}, "[26]": {"details": "second compound 0.0949 µM, first compound 0.1 µM"}, "[27]": {"details": "second compound 0.0949 µM, first compound 0.316 µM"}, "[28]": {"details": "second compound 0.0949 µM, first compound 1 µM"}, "[29]": {"details": "second compound 0.0949 µM, first compound 3.16 µM"}, "[30]": {"details": "second compound 0.0949 µM, first compound 10 µM"}, "[31]": {"details": "second compound 0.3 µM, first compound 0.0316 µM"}, "[32]": {"details": "second compound 0.3 µM, first compound 0.1 µM"}, "[33]": {"details": "second compound 0.3 µM, first compound 0.316 µM"}, "[34]": {"details": "second compound 0.3 µM, first compound 1 µM"}, "[35]": {"details": "second compound 0.3 µM, first compound 3.16 µM"}, "[36]": {"details": "second compound 0.3 µM, first compound 10 µM"}}}
{"smiles": "CC(=O)OC12COC1CC(O)C1(C)C(=O)C(O)C3=C(C)C(OC(=O)C(O)C(NC(=O)OC(C)(C)C)c4ccccc4)CC(O)(C(OC(=O)c4ccccc4)C21)C3(C)C", "note": "(centres undefined) + CCn1c(-c2cccnc2C(C)OC)c2c3cc(ccc31)N1CCOC(CC(NC(=O)C(C(C)C)N(C)C(=O)C3(F)CCN(C(=O)C#CC(C)(C)N(C)C)CC3)C(=O)N3CCCC(N3)C(=O)OCC(C)(C)C2)C1", "values": [{"measurement": "IC50", "setting": "second compound 0.000949 µM", "result": "< 0.0316", "unit": "µM"}, {"measurement": "IC50", "setting": "second compound 0.003 µM", "result": "< 0.0316", "unit": "µM"}, {"measurement": "IC50", "setting": "second compound 0.00949 µM", "result": "< 0.0316", "unit": "µM"}, {"measurement": "IC50", "setting": "second compound 0.03 µM", "result": "< 0.0316", "unit": "µM"}, {"measurement": "IC50", "setting": "second compound 0.0949 µM", "result": "< 0.0316", "unit": "µM"}, {"measurement": "IC50", "setting": "second compound 0.3 µM", "result": "< 0.0316", "unit": "µM"}, {"measurement": "viability, T/C", "setting": "[1]", "result": 18.3, "unit": "%"}, {"measurement": "viability, T/C", "setting": "[2]", "result": 15.4, "unit": "%"}, {"measurement": "viability, T/C", "setting": "[3]", "result": 11.9, "unit": "%"}, {"measurement": "viability, T/C", "setting": "[4]", "result": 15.6, "unit": "%"}, {"measurement": "viability, T/C", "setting": "[5]", "result": 15.1, "unit": "%"}, {"measurement": "viability, T/C", "setting": "[6]", "result": 14.2, "unit": "%"}, {"measurement": "viability, T/C", "setting": "[7]", "result": 17.3, "unit": "%"}, {"measurement": "viability, T/C", "setting": "[8]", "result": 15.6, "unit": "%"}, {"measurement": "viability, T/C", "setting": "[9]", "result": 13.1, "unit": "%"}, {"measurement": "viability, T/C", "setting": "[10]", "result": 14.4, "unit": "%"}, {"measurement": "viability, T/C", "setting": "[11]", "result": 14.9, "unit": "%"}, {"measurement": "viability, T/C", "setting": "[12]", "result": 11.1, "unit": "%"}, {"measurement": "viability, T/C", "setting": "[13]", "result": 16.9, "unit": "%"}, {"measurement": "viability, T/C", "setting": "[14]", "result": 13.9, "unit": "%"}, {"measurement": "viability, T/C", "setting": "[15]", "result": 13.1, "unit": "%"}, {"measurement": "viability, T/C", "setting": "[16]", "result": 13.8, "unit": "%"}, {"measurement": "viability, T/C", "setting": "[17]", "result": 12.7, "unit": "%"}, {"measurement": "viability, T/C", "setting": "[18]", "result": 12.7, "unit": "%"}, {"measurement": "viability, T/C", "setting": "[19]", "result": 17.6, "unit": "%"}, {"measurement": "viability, T/C", "setting": "[20]", "result": 16.2, "unit": "%"}, {"measurement": "viability, T/C", "setting": "[21]", "result": 14.4, "unit": "%"}, {"measurement": "viability, T/C", "setting": "[22]", "result": 13, "unit": "%"}, {"measurement": "viability, T/C", "setting": "[23]", "result": 14.6, "unit": "%"}, {"measurement": "viability, T/C", "setting": "[24]", "result": 16.3, "unit": "%"}, {"measurement": "viability, T/C", "setting": "[25]", "result": 15.9, "unit": "%"}, {"measurement": "viability, T/C", "setting": "[26]", "result": 15.1, "unit": "%"}, {"measurement": "viability, T/C", "setting": "[27]", "result": 16.1, "unit": "%"}, {"measurement": "viability, T/C", "setting": "[28]", "result": 15.3, "unit": "%"}, {"measurement": "viability, T/C", "setting": "[29]", "result": 13.6, "unit": "%"}, {"measurement": "viability, T/C", "setting": "[30]", "result": 17.3, "unit": "%"}, {"measurement": "viability, T/C", "setting": "[31]", "result": 16.8, "unit": "%"}, {"measurement": "viability, T/C", "setting": "[32]", "result": 17.5, "unit": "%"}, {"measurement": "viability, T/C", "setting": "[33]", "result": 16.6, "unit": "%"}, {"measurement": "viability, T/C", "setting": "[34]", "result": 15.9, "unit": "%"}, {"measurement": "viability, T/C", "setting": "[35]", "result": 15.8, "unit": "%"}, {"measurement": "viability, T/C", "setting": "[36]", "result": 16.9, "unit": "%"}]}
{"smiles": "CCC(CC)c1cc(NC2CCC(N)C2)n2nccc2n1", "note": "(centres undefined) + CCn1c(-c2cccnc2C(C)OC)c2c3cc(ccc31)N1CCOC(CC(NC(=O)C(C(C)C)N(C)C(=O)C3(F)CCN(C(=O)C#CC(C)(C)N(C)C)CC3)C(=O)N3CCCC(N3)C(=O)OCC(C)(C)C2)C1", "values": [{"measurement": "IC50", "setting": "second compound 0.000949 µM", "result": "< 0.0316", "unit": "µM"}, {"measurement": "IC50", "setting": "second compound 0.003 µM", "result": "< 0.0316", "unit": "µM"}, {"measurement": "IC50", "setting": "second compound 0.00949 µM", "result": "< 0.0316", "unit": "µM"}, {"measurement": "IC50", "setting": "second compound 0.03 µM", "result": "< 0.0316", "unit": "µM"}, {"measurement": "IC50", "setting": "second compound 0.0949 µM", "result": "< 0.0316", "unit": "µM"}, {"measurement": "IC50", "setting": "second compound 0.3 µM", "result": "< 0.0316", "unit": "µM"}, {"measurement": "viability, T/C", "setting": "[1]", "result": 24.2, "unit": "%"}, {"measurement": "viability, T/C", "setting": "[2]", "result": 25.9, "unit": "%"}, {"measurement": "viability, T/C", "setting": "[3]", "result": 22.9, "unit": "%"}, {"measurement": "viability, T/C", "setting": "[4]", "result": 31.1, "unit": "%"}, {"measurement": "viability, T/C", "setting": "[5]", "result": 14.9, "unit": "%"}, {"measurement": "viability, T/C", "setting": "[6]", "result": 32.4, "unit": "%"}, {"measurement": "viability, T/C", "setting": "[7]", "result": 23.2, "unit": "%"}, {"measurement": "viability, T/C", "setting": "[8]", "result": 24.3, "unit": "%"}, {"measurement": "viability, T/C", "setting": "[9]", "result": 23, "unit": "%"}, {"measurement": "viability, T/C", "setting": "[10]", "result": 29.3, "unit": "%"}, {"measurement": "viability, T/C", "setting": "[11]", "result": 12.1, "unit": "%"}, {"measurement": "viability, T/C", "setting": "[12]", "result": 39, "unit": "%"}, {"measurement": "viability, T/C", "setting": "[13]", "result": 25.1, "unit": "%"}, {"measurement": "viability, T/C", "setting": "[14]", "result": 23.2, "unit": "%"}, {"measurement": "viability, T/C", "setting": "[15]", "result": 24.5, "unit": "%"}, {"measurement": "viability, T/C", "setting": "[16]", "result": 31.1, "unit": "%"}, {"measurement": "viability, T/C", "setting": "[17]", "result": 13.7, "unit": "%"}, {"measurement": "viability, T/C", "setting": "[18]", "result": 40.9, "unit": "%"}, {"measurement": "viability, T/C", "setting": "[19]", "result": 23, "unit": "%"}, {"measurement": "viability, T/C", "setting": "[20]", "result": 25.1, "unit": "%"}, {"measurement": "viability, T/C", "setting": "[21]", "result": 27.3, "unit": "%"}, {"measurement": "viability, T/C", "setting": "[22]", "result": 33.5, "unit": "%"}, {"measurement": "viability, T/C", "setting": "[23]", "result": 14.6, "unit": "%"}, {"measurement": "viability, T/C", "setting": "[24]", "result": 45, "unit": "%"}, {"measurement": "viability, T/C", "setting": "[25]", "result": 21.5, "unit": "%"}, {"measurement": "viability, T/C", "setting": "[26]", "result": 24.5, "unit": "%"}, {"measurement": "viability, T/C", "setting": "[27]", "result": 29, "unit": "%"}, {"measurement": "viability, T/C", "setting": "[28]", "result": 32.5, "unit": "%"}, {"measurement": "viability, T/C", "setting": "[29]", "result": 16.1, "unit": "%"}, {"measurement": "viability, T/C", "setting": "[30]", "result": 48.7, "unit": "%"}, {"measurement": "viability, T/C", "setting": "[31]", "result": 23.3, "unit": "%"}, {"measurement": "viability, T/C", "setting": "[32]", "result": 26.9, "unit": "%"}, {"measurement": "viability, T/C", "setting": "[33]", "result": 31.1, "unit": "%"}, {"measurement": "viability, T/C", "setting": "[34]", "result": 33.1, "unit": "%"}, {"measurement": "viability, T/C", "setting": "[35]", "result": 13.1, "unit": "%"}, {"measurement": "viability, T/C", "setting": "[36]", "result": 44.8, "unit": "%"}]}
